# Source: patent US20030206891A1, “Rapamycin-based biological regulation” (ARIAD Gene Therapeutics, Inc., priority 1995, published 2003)
# Legend:
# [1] = tested on: HT1080 cells expressing myristoylated FRAP-FKBP-Fas or (FKBPx2)-Fas chimeras; assay: Regulated apoptosis of stably transfected HT1080 cells, alamar blue viability; assay type: cell-based, human
# Description: HT1080 cells were infected with viral stock and selected with G418.
# The media was removed and replaced with 100 μl of media containing 10% alamar blue dye. Plates were incubated as before, and the extent of cell viability assessed periodically by spectrophotometric determination of OD at 570 nm and 600 nm on a microtiter plate reader.
# [2] = target: FRAP (amino acids 2015-2114) displayed on phage with His6-tagged FKBP (Homo sapiens, UniProt P42345+P62942); assay: Binding enrichment of FRAP display phagemids on His6-flag-FKBP with compound, captured on Ni-NTA agarose; settings: 1 μM His6-flag-FKBP, 2.5 μl of 100 pM compound in 250 μl, 1 hour
# [3] = Pharmacokinetics in nu/nu mice after intravenous administration; assay type: in vivo
# Description: (§1) The accuracy of the dosing solutions was confirmed by HPLC analysis prior to intravenous administration into the tail veins. […] In addition, other control mice, bearing transfected cells, received only the rapamycin vehicle.
# FKBP = target: T1, FKBP (Homo sapiens, UniProt P62942); assay: Competitive fluorescence polarization (FP) assay of binding to FKBP with fluoresceinated FK506 probe AP1491
# T1 construct: made in house
# Description: Serial 10-fold dilutions of each analog were prepared in 100% ethanol in glass vials and stored on ice. All other manipulations were performed at room temperature.
# The plates was stored covered in the dark for approximately 30 min to permit equilibration and then the fluorescence polarization of the sample in each well read on a Jolley FPM-2 FP plate reader (Jolley Consulting and Research, Inc., Grayslake, Ill.) in accordance with the manufacturer's recommendations. The mean polarization (mP units) for each competitor concentration was usually converted to % total binding by reference to the control values and plotted (y) vs. log molar final concentration of competitor (x). Non-linear least square analysis was used to fit the curve and extract the IC50 using the following equation:
# y=M1+(M4−M1)/(1+exp(M2*(M3−x)))
# where M3 is the IC50. For incomplete curves the IC50 was determined by interpolation.
# The affinity of the rapalogs for FKBP was assayed as described for C24 rapalogs in section A above, using competitive FP.
# FRAP = target: T2, FRAP (Homo sapiens, UniProt P42345+P62942); assay: SEAP reporter assay in HT20-6 cells for binding of rapalog-FKBP complexes to FRAP; assay type: cell-based; settings: serial dilutions, 22 hours, FIG. 15
# T2 construct: expressed in transfected cells; host or cells: HT20-6 (clone of human HT1080 fibrosarcoma cells)
# Description: HT20-6 cells were plated in 96-well dishes (1×10^4 cells/well) and 200 _l medium containing serial dilutions of rapalog was added to each well (in triplicate).
# transfected HT1080 cells = assay: Rapamycin-dependent production of hGH in nu/nu mice transplanted with transfected HT1080 cells; assay type: in vivo
# Description: To transplant transiently transfected cells into mice, 2×10^6 transfected HT1080 cells, were suspended in 100 _l PBS/0.1% BSA/0.1% glucose buffer, and administered into four intramuscular sites (approximately 25 _l per site) on the haunches and flanks of the animals. Control mice received equivalent volume injections of buffer alone.
# as §1
# Blood was collected by either anesthetizing or sacrificing mice via CO2 inhalation. Anesthetized mice were used to collect 100 _l of blood by cardiac puncture. The mice were revived and allowed to recover for subsequent blood collections. Sacrificed mice were immediately exsanguinated. Blood samples were allowed to clot for 24 hours, at 4° C., and sera were collected following centrifugation at 1000×g for 15 minutes. Serum hGH was measured by the Boehringer Mannheim non-isotopic sandwich ELISA (Cat No.1 585 878). […] Recommended assay instructions were followed.
# Mice were administered transfected HT1080 cells as described above. […] The four remaining doses were given under anesthesia, immediately subsequent to blood collection, at 16, 32, 48, and 64 hours. […]
# [4] = target: Lex-FKBP and Lex-FRAP proteins (Homo sapiens, UniProt P42345+P62942); assay: Gel mobility shift assay of rapamycin-dependent DNA binding by Lex-FKBP/Lex-FRAP; assay type: biochemical; settings: increasing amounts of rapamycin, FIG. 14 lanes 2-4
# [5] = C7 rapalog experiment, competitive FP
# [6] = rapamycin C24 oximes, competitive FP vs AP1491 probe, recombinant FKBP
# T1 sequence (P62942 whole entry): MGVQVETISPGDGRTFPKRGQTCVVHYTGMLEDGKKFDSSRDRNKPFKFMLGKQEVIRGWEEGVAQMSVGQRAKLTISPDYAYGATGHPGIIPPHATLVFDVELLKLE
# T2 sequence (P42345 2025-2113): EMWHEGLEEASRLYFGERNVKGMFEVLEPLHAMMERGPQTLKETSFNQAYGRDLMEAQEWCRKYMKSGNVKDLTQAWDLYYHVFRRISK
# T2 sequence (P62942 2-108): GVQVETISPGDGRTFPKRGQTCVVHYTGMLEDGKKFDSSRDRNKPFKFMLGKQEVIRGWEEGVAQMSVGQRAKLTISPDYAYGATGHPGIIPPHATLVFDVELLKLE
# Sequence of FRAP (amino acids 2015-2114) displayed on phage with His6-tagged FKBP (P42345 2015-2114): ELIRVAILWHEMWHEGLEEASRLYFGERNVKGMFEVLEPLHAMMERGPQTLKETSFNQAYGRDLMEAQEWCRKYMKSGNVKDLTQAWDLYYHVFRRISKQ
# Sequence of FRAP (amino acids 2015-2114) displayed on phage with His6-tagged FKBP (P62942 with tags, fused parts or gaps): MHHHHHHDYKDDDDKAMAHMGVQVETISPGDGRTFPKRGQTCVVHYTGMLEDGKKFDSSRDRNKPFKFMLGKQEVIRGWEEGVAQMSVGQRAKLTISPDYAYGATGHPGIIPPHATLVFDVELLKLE
# Sequence of Lex-FKBP and Lex-FRAP proteins (P62942 2-108): as the sequence (P62942 2-108) above
# Sequence of Lex-FKBP and Lex-FRAP proteins (P42345 2025-2113): as the sequence (P42345 2025-2113) above
compound,measurement,setting,value
CCC(C)(C)C(=O)C(=O)N1CCCCC1C(=O)O[C@H](CCc1ccc(OC)c(OC)c1)c1cccc(OCC(=O)NCCOCCNC(=O)COc2cccc([C@@H](CCc3ccc(OC)c(OC)c3)OC(=O)C3CCCCN3C(=O)C(=O)C(C)(C)CC)c2)c1 (stereo partly drawn) [AP1428],"extent of cell death of cells expressing a myristoylated (FKBPx2)-Fas construct, relative to rapamycin on M30/M31 cells",[1]; FIG. 13(c),comparable
C=CC[C@@H]1/C=C(\C)C[C@H](C)C[C@H](OC)[C@H]2O[C@@](O)(C(=O)C(=O)N3CCCC[C@H]3C(=O)O[C@H](/C(C)=C/[C@@H]3CC[C@@H](O)[C@H](OC)C3)[C@H](C)[C@@H](O)CC1=O)[C@H](C)C[C@@H]2OC [FK506],enrichment of FRAP phage compared to the starting mixture,[2],2.4 fold
hGH: human growth hormone secreted by the engineered cells (reporter gene product),half-life of clearance from the circulation,[3],less than four minutes
"COC1CC2CCC(C)C(O)(O2)C(=O)C(=O)N2CCCCC2C(=O)OC(C(C)CC2CCC(O)C(OC)C2)CC(=NOCC(=O)O)C(C)C=C(C)C(O)C(OC)C(=O)C(C)CC(C)C=CC=CC=C1C (stereo not drawn) [AP1687, Rapamycin (E and Z)-24-(O-carboxymethyloxime)]",fold loss in affinity (=IC50/IC50 of rapamycin),FKBP; C24 oxime experiment,813
"COC1CC(CC(C)C2CC(=O)C(C)C=C(C)C(O)C(OC)C(=O)C(C)CC(C)C=CC=CC=C(C)C(c3c[nH]c4ccccc34)CC3CCC(C)C(O)(O3)C(=O)C(=O)N3CCCCC3C(=O)O2)CCC1O (stereo not drawn) [AP1702, 7S-(3-indolyl)rapamycin]",fold loss in affinity (=IC50/IC50 of rapamycin),FKBP; C7 rapalog experiment,3.0
same,IC50,FKBP; [5],24.5 nM
same,FRAP affinity as indicated by SEAP production,FRAP,almost completely abolish SEAP expression
"CO[C@@H]1CC(C[C@@H](C)C2CC(=O)[C@H](C)/C=C(\C)[C@@H](O)[C@@H](OC)C(=O)[C@H](C)C[C@H](C)/C=C/C=C/C=C(\C)[C@@H](OC(C)C)C[C@@H]3CC[C@@H](C)[C@@](O)(O3)C(=O)C(=O)N3CCCC[C@H]3C(=O)O2)CC[C@H]1O (stereo partly drawn) [AP1700, 7S-isopropoxyrapamycin]",fold loss in affinity (=IC50/IC50 of rapamycin),FKBP; C7 rapalog experiment,2.5
same,IC50,FKBP; [5],17.8 nM
same,FRAP affinity as indicated by SEAP production,FRAP,modest reduction in FRAP affinity
"COC1CC2CCC(C)C(O)(O2)C(=O)C(=O)N2CCCCC2C(=O)OC(C(C)CC2CCC(O)C(OC)C2)CC(=NOCC(=O)O)C(C)C=C(C)C(O)C(OC)C(=O)C(C)CC(C)C=CC=CC=C1C (stereo not drawn) [AP1686, Rapamycin (E and Z)-24-(O-carboxymethyloxime)]",fold loss in affinity (=IC50/IC50 of rapamycin),FKBP; C24 oxime experiment,1620
same,IC50,FKBP; [6],16200 nM
"COC1CC2CCC(C)C(O)(O2)C(=O)C(=O)N2CCCCC2C(=O)OC(C(C)CC2CCC(O)C(OC)C2)CC(=NOCC(N)=O)C(C)C=C(C)C(O)C(OC)C(=O)C(C)CC(C)C=CC=CC=C1C (single isomer, unassigned) [AP1729, Rapamycin (E and Z)-24-(O-carboxamidomethyloxime)]",fold loss in affinity (=IC50/IC50 of rapamycin),FKBP; C24 oxime experiment,304
same,IC50,FKBP; [6],2400 nM
"COC1CC2CCC(C)C(O)(O2)C(=O)C(=O)N2CCCCC2C(=O)OC(C(C)CC2CCC(O)C(OC)C2)CC(=NOCC(N)=O)C(C)C=C(C)C(O)C(OC)C(=O)C(C)CC(C)C=CC=CC=C1C (single isomer, unassigned) [AP1730, Rapamycin (E and Z)-24-(O-carboxamidomethyloxime)]",fold loss in affinity (=IC50/IC50 of rapamycin),FKBP; C24 oxime experiment,40.5
same,IC50,FKBP; [6],320 nM
"CO[C@H]1C[C@@H]2CC[C@@H](C)[C@@](O)(O2)C(=O)C(=O)N2CCCC[C@H]2C(=O)O[C@H]([C@H](C)C[C@@H]2CC[C@@H](O)[C@H](OC)C2)CC(=O)[C@H](C)/C=C(\C)[C@@H](O)[C@@H](OC)C(=O)[C@H](C)C[C@H](C)/C=C/C=C/C=C/1C [rapamycin, Rapamycin]",serum hGH production vs dose,"transfected HT1080 cells; 0.01-10.0 mg/kg i.v., 17 hours after administration, FIG. 6",dose-responsive production of hGH
same,time of peak serum hGH after treatment,"transfected HT1080 cells; single 10.0 mg/kg i.v. dose, FIG. 7",peaked at eight hours
same,enrichment of FRAP phage compared to the starting mixture,[2],271 fold
same,effect on survival of cells not expressing mixed chimeric proteins,[1]; FIG. 13(c),minimal effects
same,survival of cells stably transfected with M30 and M31-expressing constructs,"[1]; with 50 ng/ml actinomycin D, about 20 hours, FIG. 13(a),(b)",potently reduced
same,formation of specific protein-DNA complex,[4],concomitant appearance of a specific complex
C14-desoxo-rapamycin [reference compound],fold loss in affinity (=IC50/IC50 of rapamycin),FKBP; C7 rapalog experiment,20.8
same,fold loss in affinity (=IC50/IC50 of rapamycin),FKBP; C24 oxime experiment,18.6
